Laboratory results published in article PMC4804716 (The FEBS journal, 2015).
Changes are numbered by the printed parent chain. Read-outs that look alike come from different tables or passages of the source.

Legend:
Placenta wild type hTrxR [1] = target: T1, Placenta wild type hTrxR (Homo sapiens, UniProt Q16881); assay: hTrxR DTNB assay; format: biochemical
T1 sequence (Q16881 1-499 isoform Q16881-5): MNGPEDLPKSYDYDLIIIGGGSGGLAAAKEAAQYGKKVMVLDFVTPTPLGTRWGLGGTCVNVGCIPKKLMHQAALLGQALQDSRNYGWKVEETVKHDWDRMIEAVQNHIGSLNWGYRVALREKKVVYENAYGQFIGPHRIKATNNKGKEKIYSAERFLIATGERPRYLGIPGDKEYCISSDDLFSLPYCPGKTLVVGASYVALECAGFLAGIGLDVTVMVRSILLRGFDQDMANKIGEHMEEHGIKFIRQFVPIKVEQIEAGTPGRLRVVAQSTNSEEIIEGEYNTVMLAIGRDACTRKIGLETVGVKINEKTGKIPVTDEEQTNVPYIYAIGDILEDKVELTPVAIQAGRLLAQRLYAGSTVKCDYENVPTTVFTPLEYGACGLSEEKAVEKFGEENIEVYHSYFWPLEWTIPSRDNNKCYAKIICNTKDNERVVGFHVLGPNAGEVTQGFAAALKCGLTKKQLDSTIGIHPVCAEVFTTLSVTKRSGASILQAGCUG

Placenta wild type hTrxR [2] = target: T1, Placenta wild type hTrxR; assay: hTrxR Trx assay; format: biochemical; conditions: for IC50: IC50 hTrxR, text summary spanning the Trx assay and the DTNB assay; for IC50 fold higher for hTrxR than for SmTGR: selectivity hTrxR versus SmTGR
S. mansoni worms = assay: Antischistosomal activity against adult, ex vivo worms; format: cell-based, Schistosoma mansoni; conditions: for antischistosomal activity against cultured ex vivo worms: 50 μM compound alone
[3] = target: T2, Schistosoma mansoni thioredoxin glutathione reductase (SmTGR) (Schistosoma mansoni, UniProt Q962Y6); assay: SmTGR DTNB assay; format: biochemical
T2 sequence (Q962Y6 1-598): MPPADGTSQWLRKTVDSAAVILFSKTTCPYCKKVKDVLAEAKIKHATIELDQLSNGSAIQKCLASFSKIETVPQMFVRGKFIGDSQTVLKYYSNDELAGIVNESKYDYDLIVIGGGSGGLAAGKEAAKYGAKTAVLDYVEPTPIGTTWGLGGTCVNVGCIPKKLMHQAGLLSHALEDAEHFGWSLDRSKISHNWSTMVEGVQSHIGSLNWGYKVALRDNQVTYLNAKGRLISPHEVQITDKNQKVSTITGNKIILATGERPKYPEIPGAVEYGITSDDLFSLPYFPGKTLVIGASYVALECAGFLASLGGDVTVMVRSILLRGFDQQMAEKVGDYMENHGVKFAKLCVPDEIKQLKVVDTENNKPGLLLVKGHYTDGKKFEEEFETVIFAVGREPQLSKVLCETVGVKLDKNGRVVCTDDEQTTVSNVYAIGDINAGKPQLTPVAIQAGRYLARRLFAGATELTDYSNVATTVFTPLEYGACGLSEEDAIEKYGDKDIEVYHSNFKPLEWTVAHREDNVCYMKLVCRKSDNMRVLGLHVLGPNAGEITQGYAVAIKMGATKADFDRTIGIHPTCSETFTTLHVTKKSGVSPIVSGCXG

[4] = Cyclic voltammetry of menadione derivatives; format: physicochemical; conditions: for Epa1 / Epc2 / Ipc1/Ipa1 / E^1½ / ΔEp (first wave): DMSO; for Epa1 / Epc2: 0.1 M n-Bu4NPF6, v = 200 mV s^−1, reference KCl(3 M)/Ag/AgCl; for Epa1 / Ipc1/Ipa1 / E^1½: first wave; for Epc2 / E^2½ / Epa2 / Ipc2/Ipa2 / ΔEp (second wave): second wave; for Ipc1/Ipa1 / ΔEp (first wave): 0.1 M n-Bu4NPF6, v = 200 mV s^−1; for E^1½ / E^2½: E½ = (Epc+Epa)/2; for E^1½: 0.1 M n-Bu4NPF6, reference KCl(3 M)/Ag/AgCl; for E^2½ / Epa2 / Ipc2/Ipa2 / ΔEp (second wave): irr: irreversible reduction; for ΔEp (first wave) / ΔEp (second wave): ΔE = Epa-Epc; for ΔE½: ΔE½ = E^1½-E^2½
Sec498Cys TrxR = target: T3, Sec498Cys TrxR (Homo sapiens, UniProt Q16881); assay: hTrxR mutant DTNB assay; format: biochemical
T3 sequence (Q16881 with tags, fused parts or gaps isoform Q16881-5): T1 sequence (Q16881 1-499 isoform Q16881-5) with U498C

[5] = target: T4, human glutathione reductase (hGR) (Homo sapiens, UniProt P00390); assay: hGR assay; format: biochemical
T4 sequence (P00390 1-479 isoform P00390-2): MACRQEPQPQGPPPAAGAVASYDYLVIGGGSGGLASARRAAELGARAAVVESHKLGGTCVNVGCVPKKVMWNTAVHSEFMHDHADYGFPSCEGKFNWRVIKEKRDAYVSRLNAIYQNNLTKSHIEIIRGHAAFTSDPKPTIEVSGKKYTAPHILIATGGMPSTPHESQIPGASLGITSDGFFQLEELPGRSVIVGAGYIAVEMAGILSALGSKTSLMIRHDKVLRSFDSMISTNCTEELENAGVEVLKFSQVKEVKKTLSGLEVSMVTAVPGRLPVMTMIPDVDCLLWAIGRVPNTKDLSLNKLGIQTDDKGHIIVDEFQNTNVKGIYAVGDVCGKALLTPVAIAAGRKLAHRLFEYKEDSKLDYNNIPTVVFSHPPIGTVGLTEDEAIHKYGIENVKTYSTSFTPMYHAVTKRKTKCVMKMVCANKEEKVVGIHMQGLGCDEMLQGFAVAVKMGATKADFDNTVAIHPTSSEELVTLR

[6] = Glutathionylation reaction kinetics; format: physicochemical; conditions: pH 7.5
[7] = Cytotoxicity against human MRC-5 cells; format: cell-based; conditions: human lung MRC-5 fibroblasts (MRC-5SV2 cells)
[8] = target: T2, Schistosoma mansoni thioredoxin glutathione reductase (SmTGR)
[9] = 50 μM with hemoglobin 10 μM, 22h incubation

## CC1=C(COc2ccc(C#N)cc2)C(=O)c2ccccc2C1=O [Compound 2, 4-((3-Methyl-1,4-dioxo-1,4-dihydronaphthalen-2-yl)methoxy)benzonitrile]
Placenta wild type hTrxR [1]
  IC50: 1.2 µM
Placenta wild type hTrxR [2]
  IC50: 1.2 to 1.5 µM
S. mansoni worms
  antischistosomal activity against cultured ex vivo worms: (moderately) active
S. mansoni worms; [9]
  female worms killed: 100%
  male worms killed: 50%
[3]
  IC50: 0.462 µM
[4]
  Epa1: −0.492 V
  Epc2: −1.154 V
  Ipc1/Ipa1: 2.29
  E^1½: −0.556 V
  E^2½: −1.127 V
  Epa2: −1.100 V
  Ipc2/Ipa2: 2
  ΔEp (first wave): 128 mV
  ΔEp (second wave): 54 mV
  ΔE½: 571 mV
Sec498Cys TrxR
  IC50: 6 µM
[5]
  IC50: 8.5 µM

## N#Cc1ccc(OCC2=C(C(F)F)C(=O)c3ccccc3C2=O)cc1 [Compound 8, 4-((3-(Difluoromethyl)-1,4-dioxo-1,4-dihydronaphthalen-2-yl)methoxy)benzonitrile]
Placenta wild type hTrxR [1]
  IC50: 0.014 µM
[6]
  decrease of the k2 values compared to the difluoromenadione itself: ~10 fold
[7]
  IC50 at 3 days: 6.7 µM
Placenta wild type hTrxR [2]
  IC50: 0.013 to 0.014 µM
S. mansoni worms
  antischistosomal activity against cultured ex vivo worms: inactive
S. mansoni worms; 50 μM, with or without human red blood cells (10 μl/well)
  killing of worms whether RBCs were present or not: no effect on killing the worms
[3]
  IC50: 0.144 µM
[4]
  Epa1: −0.244 V
  Ipc1/Ipa1: 3.31
  E^1½: −0.329 V
  ΔEp (first wave): 170 mV
Sec498Cys TrxR
  IC50: 0.37 µM
[5]
  IC50: 2.1 µM

## O.O.O.O=C([O-])[C@H]([O-])[C@@H]([O-])C(=O)[O-].O=C([O-])[C@H]([O-])[C@@H]([O-])C(=O)[O-].[K+].[K+].[Sb+3].[Sb+3] [PAT, potassium antimonyl tartrate, reference compound]
S. mansoni worms; drug reference, after two days
  dead worms: 100%
[3]; read-out: IC50 SmTGR assay, pH 7, 25°C, 100 μM NADPH, 3 mM DTNB
  IC50: 0.173 µM

## COc1ccc(OCC2=C(C)C(=O)c3ccccc3C2=O)cc1C(F)(F)F [Compound 7, 2-((4-Methoxy-3-(trifluoromethyl)phenoxy)methyl)-3-methylnaphthalene-1,4-dione]
Placenta wild type hTrxR [1]
  IC50: 1.5 µM
Placenta wild type hTrxR [2]
  IC50: 0.8 to 1.5 µM
  IC50 fold higher for hTrxR than for SmTGR: around 5 fold
S. mansoni worms
  antischistosomal activity against cultured ex vivo worms: active
S. mansoni worms; 50 μM, human red blood cells 10 μl/well, 24 hours
  survival rates in the presence versus absence of RBCs after 24 hours: identical
S. mansoni worms; 50 μM, human red blood cells 10 μl/well, 48 hours
  dead parasites in the absence versus presence of RBCs after 48 hours: more parasites were dead in the absence of RBCs than in the presence of RBCs
[8]
  second order rate constant ki/KI: 1180 M⁻¹ s⁻¹
[3]
  IC50: 0.2 µM
[4]
  Epa1: −0.506 V
  Epc2: −1.132 V
  Ipc1/Ipa1: 2.92
  E^1½: −0.563 V
  E^2½: −1.126 V
  Epa2: −1.120 V
  Ipc2/Ipa2: 1.75
  ΔEp (first wave): 114 mV
  ΔE½: 563 mV
Sec498Cys TrxR
  IC50: > 50 µM
[5]
  IC50: 12 µM

## CC1=C(COc2ccc(Br)cc2)C(=O)c2ccccc2C1=O [Compound 5, 2-((4-Bromophenoxy)methyl)-3-methylnaphthalene-1,4-dione]
Placenta wild type hTrxR [1]
  IC50: 0.8 µM
Placenta wild type hTrxR [2]
  IC50: 0.8 µM
[3]
  IC50: 0.784 µM
[4]
  Epc2: −1.158 V
  Ipc1/Ipa1: 1.89
  E^2½: irr
  Epa2: irr
  Ipc2/Ipa2: irr
  ΔEp (first wave): 119 mV
  ΔEp (second wave): irr
Sec498Cys TrxR
  IC50: > 100 µM
[5]
  IC50: > 5 µM

## CC1=C(COc2ccc(C(=O)O)cc2)C(=O)c2ccccc2C1=O [Compound 1, 4-((3-Methyl-1,4-dioxo-1,4-dihydronaphthalen-2-yl)methoxy)benzoic acid]
Placenta wild type hTrxR [1]
  IC50: 3 µM
[7]
  IC50 at 3 days: 6.55 µM
Placenta wild type hTrxR [2]
  IC50: 2 to 3 µM
S. mansoni worms
  antischistosomal activity against cultured ex vivo worms: able to kill cultured adult worms
[3]
  IC50: 0.482 µM
[4]
  Epa1: −0.532 V
  Epc2: −1.265 V
  Ipc1/Ipa1: 1.27
  E^1½: −0.580 V
  E^2½: irr
  Epa2: irr
  Ipc2/Ipa2: irr
  ΔEp (first wave): 96 mV
  ΔEp (second wave): irr
Sec498Cys TrxR
  IC50: 40 µM
[5]
  IC50: 2.3 µM

## CC1=C(COc2cccc(C(F)(F)F)c2)C(=O)c2ccccc2C1=O [Compound 6, 2-Methyl-3-((3-(trifluoromethyl)phenoxy)methyl)naphthalene-1,4-dione]
Placenta wild type hTrxR [1]
  IC50: 1.5 µM
Placenta wild type hTrxR [2]
  IC50: 1.5 to 3 µM
  IC50 fold higher for hTrxR than for SmTGR: around 10 fold
S. mansoni worms
  antischistosomal activity against cultured ex vivo worms: inactive
[3]
  IC50: 0.166 µM
Sec498Cys TrxR
  IC50: > 50 µM
[5]
  IC50: 0.6 µM

## CC1=C(COc2ccc(Cl)cc2)C(=O)c2ccccc2C1=O [Compound 4, 2-((4-Chlorophenoxy)methyl)-3-methylnaphthalene-1,4-dione]
Placenta wild type hTrxR [1]
  IC50: 0.7 µM
Placenta wild type hTrxR [2]
  IC50: 0.7 µM
[3]
  IC50: 0.457 µM
Sec498Cys TrxR
  IC50: > 100 µM
[5]
  IC50: 5.5 µM

## COc1c(F)cc(OCC2=C(C)C(=O)c3ccccc3C2=O)cc1F [Compound 3, 2-((3,5-Difluoro-4-methoxyphenoxy)methyl)-3-methylnaphthalene-1,4-dione]
Placenta wild type hTrxR [1]
  IC50: 2 µM
Placenta wild type hTrxR [2]
  IC50: 2 µM
S. mansoni worms
  antischistosomal activity against cultured ex vivo worms: most potent
[3]
  IC50: 0.407 µM
Sec498Cys TrxR
  IC50: > 100 µM
[5]
  IC50: > 25 µM
